Converted amounts (≈) assume the structure as drawn. Read-outs that look alike come from different tables or passages of the source.
Tested on: A. fum.
Assay: In vitro antifungal MIC, NCCLS M38P broth method in RPMI 1640/MOPS pH 7
Format: cell-based, Aspergillus fumigatus
Conditions: for MIC: Aspergillus fumigatus
Description: The in vitro evaluation of the antifungal activity of the compound of this invention (as shown in Table I) can be performed by determining the minimum inhibitory concentration (MIC) which is the concentration of the test compound in Rosewell Park Memorial Institute (RPMI) 1640 liquid medium buffered with 3-(Morpholino)propane sulfonic acid (MOPS) to pH 7, at which there is significant inhibition of the particular fungi. In practice the National Committee for Clinical Laboratory Standard (NCCLS) M27A document for Candida and Cryptococcus and M38P for Aspergillus was used to determine the MIC and readings recorded only when the Quality Control results fell into the acceptable range. After MIC results had been recorded, 100 μL from each of the well showing no growth was spread over Sabouraud Dextrose Agar (SDA) to determine the minimum fungicidal concentration (MFC).

[1] = A. fumigatus strain 1008, RPMI 1640, MOPS pH 7
[2] = A. fumigatus strain Si-l, RPMI 1640, MOPS pH 7
[3] = A. fumigatus strain 1008, RPMI 1640, MOPS pH 7, read-out: MIC (A. fum.) 1008
[4] = A. fumigatus strain Si-l, RPMI 1640, MOPS pH 7, read-out: MIC (A. fum.) Si-l
[5] = pH 7, read-out: MIC (A. fum.) 1008
[6] = pH 7, read-out: MIC (A. fum.) Si-l

| Compound | MIC [3] | MIC [4] | other results |
| --- | --- | --- | --- |
| 1-t-Butoxycarbonyl-2-[(1R,2R)-2-(2,4-difluorophenyl)-2-hydroxy-1-methyl-3-(1H-1,2,4-triazol-1-yl)propyl]-4-[4-[4-chlorophenyl]piperizin-1-yl]phenyl]thiosemicarbazide [Compound No. 12] |  |  | MIC (A. fum.) 1008 [1]: 0.25 µg/mL; MIC (A. fum.) Si-l [2]: 0.25 µg/mL |
| C[C@@H](N(NC(=O)OC(C)(C)C)C(=S)Nc1ccc(F)cc1)[C@](O)(Cn1cncn1)c1ccc(F)cc1F [Compound No. 1] | > 16 µg/mL | > 16 µg/mL |  |
| C[C@@H](N(NC(=O)OC(C)(C)C)C(=S)Nc1ccc(F)cc1F)[C@](O)(Cn1cncn1)c1ccc(F)cc1F [Compound No. 2, 1-t-Butoxycarbonyl-2-[(1R,2R)-2-(2,4-difluorophenyl)-2-hydroxy-1-methyl-3-(1H-1,2,4-triazol-1-yl)propyl]-4-[2,4-difluorophenyl]thiosemicarbazide] | > 16 µg/mL | > 16 µg/mL |  |
| COc1ccc(NC(=S)N(NC(=O)OC(C)(C)C)[C@H](C)[C@](O)(Cn2cncn2)c2ccc(F)cc2F)c(OC)c1 [Compound No. 4, 1-t-Butoxycarbonyl-2-[(1R,2R)-2-(2,4-difluorophenyl)-2-hydroxy-1-methyl-3-(1H-1,2,4-triazol-1-yl)propyl]-4-[2,4-dimethoxyphenyl]thiosemicarbazide] | > 16 µg/mL | > 16 µg/mL |  |
| C[C@@H](N(NC(=O)OC(C)(C)C)C(=S)Nc1ccc(OC2CCCCO2)cc1)[C@](O)(Cn1cncn1)c1ccc(F)cc1F (stereo partly drawn) [Compound No. 5, 1-t-Butoxycarbonyl-2-[(1R,2R)-2-(2,4-difluorophenyl)-2-hydroxy-1-methyl-3-(1H-1,2,4-triazol-1-yl)propyl]-4-[4-(tetrahydropyranyloxy)phenyl]thiosemicarbazide] | > 16 µg/mL | > 16 µg/mL |  |
| C[C@@H](N(NC(=O)OC(C)(C)C)C(=S)Nc1ccc(OC(F)(F)F)cc1)[C@](O)(Cn1cncn1)c1ccc(F)cc1F [Compound No. 6, 1-t-Butoxycarbonyl-2-[(1R,2R)-2-(2,4-difluorophenyl)-2-hydroxy-1-methyl-3-(1H-1,2,4-triazol-1-yl)propyl]-4-[4-trifluoromethoxyphenyl]thiosemicarbazide] | 8 µg/mL (≈ 13.3 µM) | 8 µg/mL (≈ 13.3 µM) |  |
| C[C@@H](N(NC(=O)OC(C)(C)C)C(=S)Nc1ccc(OCC(F)(F)C(F)F)cc1)[C@](O)(Cn1cncn1)c1ccc(F)cc1F [Compound No. 7, 1-t-Butoxycarbonyl-2-[(1R,2R)-2-(2,4-difluorophenyl)-2-hydroxy-1-methyl-3-(1H-1,2,4-triazol-1-yl)propyl]-4-[4-(2,2,3,3-tetrafluoropropoxy)phenyl]thiosemicarbazide] | 4 µg/mL (≈ 6.17 µM) | 4 µg/mL (≈ 6.17 µM) |  |
| C[C@@H](N(NC(=O)OC(C)(C)C)C(=S)Nc1ccc([N+](=O)[O-])cc1)[C@](O)(Cn1cncn1)c1ccc(F)cc1F [Compound No. 8, 1-t-Butoxycarbonyl-2-[(1R,2R)-2-(2,4difluorophenyl)-2-hydroxy-1-methyl-3-(1H-1,2,4-triazol-1-yl)propyl]-4-[4-nitrophenyl]thiosemicarbazide] |  |  | MIC [5]: > 16 µg/mL; MIC [6]: > 16 µg/mL |
| C[C@@H](N(NC(=O)OC(C)(C)C)C(=S)Nc1ccc(-n2cnnn2)cc1)[C@](O)(Cn1cncn1)c1ccc(F)cc1F [Compound No. 9, 1-t-Butoxycarbonyl-2-[(1R,2R)-2-(2,4-difluorophenyl)-2-hydroxy-1-methyl-3-(1H-1,2,4-triazol-1-yl)propyl]-4-[4-([1,2,3,4-tetrazol-1-yl])phenyl]thiosemicarbazide] | > 16 µg/mL | > 16 µg/mL |  |
| C[C@@H](N(NC(=O)OC(C)(C)C)C(=S)Nc1ccc(-n2ncnn2)cc1)[C@](O)(Cn1cncn1)c1ccc(F)cc1F [Compound No. 10, 1-t-Butoxycarbonyl-2-[(1R,2R)-2-(2,4-difluorophenyl)-2-hydroxy-1-methyl-3-(1H-1,2,4-triazol-1-yl)propyl]-4-[4-(1,2,3,4-tetrazol-2-yl)phenyl]thiosemicarbazide] | > 16 µg/mL | > 16 µg/mL |  |
| C[C@@H](N(NC(=O)OC(C)(C)C)C(=S)Nc1cccc2ccccc12)[C@](O)(Cn1cncn1)c1ccc(F)cc1F [Compound No. 14] |  |  | MIC (A. fum.) 1008 [1]: >16 µg/mL; MIC (A. fum.) Si-l [2]: >16 µg/mL |
| CCCCCCCCNC(=S)N(NC(=O)OC(C)(C)C)[C@H](C)[C@](O)(Cn1cncn1)c1ccc(F)cc1F [Compound No. 15] |  |  | MIC (A. fum.) 1008 [1]: >16 µg/mL; MIC (A. fum.) Si-l [2]: >16 µg/mL |
| C[C@@H](N(NC(=O)OC(C)(C)C)C(=O)Nc1ccc(Cl)cc1)[C@](O)(Cn1cncn1)c1ccc(F)cc1F [Compound No. 25, 1-t-Butoxycarbonyl-2-[(1R,2R)-2-(2,4-difluorophenyl)-2-hydroxy-1-methyl-3-(1H-1,2,4-triazol-1-yl)propyl]-4-[4-chlorophenyl]semicarbazide] |  |  | MIC [5]: > 16 µg/mL; MIC [6]: > 16 µg/mL |
| C[C@@H](N(NC(=O)OC(C)(C)C)C(=O)Nc1ccc(OCC(F)(F)C(F)F)cc1)[C@](O)(Cn1cncn1)c1ccc(F)cc1F [Compound No. 26, 1-t-Butoxycarbonyl-2-[(1R,2R)-2-(2,4-difluorophenyl)-2-hydroxy-1-methyl-3-(1H-1,2,4-triazol-1-yl)propyl]-4-[4(2,2,3,3-tetrafluoropropoxy)phenyl]semicarbazide] | > 16 µg/mL | > 16 µg/mL |  |
| COc1ccc(NC(=O)N(NC(=O)OC(C)(C)C)[C@H](C)[C@](O)(Cn2cncn2)c2ccc(F)cc2F)c(OC)c1 [Compound No. 27, 1-t-Butoxycarbonyl-2-[(1R,2R)-2-(2,4-difluorophenyl)-2-hydroxy-1-methyl-3-(1H-1,2,4-triazol-1-yl)propyl]-4-[2,4-dimethoxyphenyl]semicarbazide] | > 16 µg/mL | > 16 µg/mL |  |
| C[C@@H](N(N)C(=O)Nc1ccc(Cl)cc1)[C@](O)(Cn1cncn1)c1ccc(F)cc1F [Compound No. 28, 2-[(1R,2R)-2-(2,4-difluorophenyl)-2-hydroxy-1-methyl-3-(1H-1,2,4-triazol-1-yl)propyl]-4-[4-chlorophenyl]semicarbazide] |  |  | MIC [5]: > 16 µg/mL; MIC [6]: > 16 µg/mL |
| C[C@@H](N(N)C(=S)Nc1ccccc1)[C@](O)(Cn1cncn1)c1ccc(F)cc1F [Compound No. 29, 2-[(1R,2R)-2-(2,4-difluorophenyl)-2-hydroxy-1-methyl-3-(1H-1,2,4-triazol-1-yl)propyl]-4-phenyl thiosemicarbazide] | > 16 µg/mL | > 16 µg/mL |  |
| C[C@@H](N(N)C(=S)Nc1ccc(O)cc1)[C@](O)(Cn1cncn1)c1ccc(F)cc1F [Compound No. 30, 2-[(1R,2R)-2-(2,4-difluorophenyl)-2-hydroxy-1-methyl-3-(1H-1,2,4-triazol-1-yl)propyl]-4-[4-hydroxyphenyl]thiosemicarbazide] |  |  | MIC [5]: > 16 µg/mL; MIC [6]: > 16 µg/mL |
| C[C@@H](N(N)C(=S)Nc1ccc(OCC(F)(F)C(F)F)cc1)[C@](O)(Cn1cncn1)c1ccc(F)cc1F [Compound No. 31, 2-[(1R,2R)-2-(2,4-difluorophenyl)-2-hydroxy-1-methyl-3-(1H-1,2,4-triazol-1-yl)propyl]-4-[4-(2,2,3,3-tetrafluoropropoxy)phenyl]thiosemicarbazide] | 1 µg/mL (≈ 1.82 µM) | 0.25 µg/mL (≈ 0.456 µM) |  |
| COc1ccc(NC(=S)N(N)[C@H](C)[C@](O)(Cn2cncn2)c2ccc(F)cc2F)c(OC)c1 [Compound No. 32, 2-[(1R,2R)-2-(2,4-difluorophenyl)-2-hydroxy-1-methyl-3-(1H-1,2,4-triazol-1-yl)propyl]-4-[2,4-dimethoxyphenyl]thiosemicarbazide] | > 16 µg/mL | > 16 µg/mL |  |

From patent publication US20060178415A1, “Azole derivatives as antifungal agents” (priority 2002, published 2006)
